Results as given in US20070185167A1, “SODIUM SALTS OF 5-[4-[2-(N-METHYL-N-(2-PYRIDYL)AMINO)ETHOXY]BENZYL]THIAZOLIDINE-2,4-DIONE” (SmithKline Beecham p.l.c., priority 2000, published 2007).

Key:
[1] = especially under humid conditions
[2] = 25° C and 75% relative humidity, approximately constant weight
Description: For the avoidance of doubt when used herein the terms “non-hygroscopic”, “slightly hygroscopic”, “moderately hygroscopic” and “very hygroscopic” are to have the meanings defined by the above mentioned criteria.

SMILES: CN(CCOc1ccc(CC2SC(=O)NC2=O)cc1)c1ccccn1.[Na] (centres unmarked) [Sodium Salt, 5-[4-[2-(N-Methyl-N-(2-pyridyl)amino)ethoxy]benzyl]thiazolidine-2,4-dione, Sodium Salt]
- solid state stability [1]: good solid state stability
- hygroscopicity classification (% weight gain) [2]: non-hygroscopic (<2%)
